Laboratory results taken from patent US20260217701A1, “SELECTIVE BET INHIBITORS AND USES THEREOF” (Tay Therapeutics Limited, priority 2022, published 2026).
“And” between values parts separate entries of the source, which are not always exact repeats. Equal values may be shown once. Read-outs that look alike come from different tables or passages of the source.

Assays:
[1] = UUO study: clinical observations; type: in vivo; details: UUO rats; 10 mg/kg
[2] = UUO study: plasma concentration of Compound A; type: in vivo, rats; details: for concentration at 4 h: rat, plasma, oral, 10 mg/kg
CXCL10 = CXCL10 release from IFN-γ stimulated human PBMCs (ELISA); type: cell-based; details: for IC50: Homo sapiens, PBMC
Description: To analyze the selectivity of Compound A for CXCL10, human PBMCs were similarly thawed, and compounds were similarly prepared (final compound concentration ranged from 30,000 nM to 0.005 nM, with a final DMSO concentration per well of 0.3%). PBMCs were seeded into 96-well plates at a concentration of 2×10^5 cells/well (volume of 190 μL) and treated with various concentrations of Compound A for 1 hour. The PBMCs were then stimulated with IFN-γ (15 ng/ml final concentration in a volume of 10 μL), and supernatants were collected 24 hours after the exposure to IFN-γ. Levels of CXCL10 in the supernatant were then analyzed by ELISA (Invitrogen).

[3] = Rat PK study #1 (Compound A PO, methylcellulose vs propylene glycol formulation); type: in vivo, Lewis rats
Description: For the first rat pharmacokinetic study, the pharmacokinetics of Compound A were assessed in male Lewis rats. Compound A was prepared in two different formulations (1% methylcellulose and 20% propylene glycol/20% Vitamin E/60% water) according to Table 3A (see Tables 2A and 2D for formulations). The formulations were made fresh prior to use. Animals were divided into two groups based on the compound formulation (n=3/group). The Compound A solutions were administered to animals orally (PO) and animals were then monitored over a 24 h period.
Blood samples (~0.2 mL) were collected according to a schedule (0.083, 0.25, 0.5, 1, 2, 4, 8, and 24 h following the initial dosing) via the jugular vein by cannulation and EDTA-K2 was used as anticoagulant. Within 30 minutes of collection, the samples were centrifuged at approximately 4000 times g-force for 5 minutes at 4° C. to obtain blood plasma. The plasma samples were immediately divided into two aliquots (~75 μL each), transferred to a cryogenic vial, and stored in a freezer at −75±15° C. prior to analysis.
The concentration of Compound A in plasma samples was determined by liquid chromatography-mass spectrometry (LC-MS/MS) using a Shimadzu HPLC (DGU-20A5R; LC-30AD; SIL-30AC; Rack changer II; CTO-31A; and CBM-20A) and an AB API 5500 LC/MS/MS instrument. Samples were analyzed on an Agilent Poroshell 120 EC-C18 4 μm (50×2.1 mm) column. Solution A in the mobile phase was 95% water (0.1% formic acid) and solution B was 95% acetonitrile in water (0.1% formic acid), injection volume was 3 μL, and flow rate was 0.6 mL/min.
To prepare samples for analysis, serial concentrations were prepared by diluting the stock solution of analyte with a 50% acetonitrile in water solution. 5 μL working solutions (5, 10, 20, 50, 100, 500, 1000, 5000, and 10000 ng/ml) were added to 50 μL of the blank Lewis rat plasma to achieve calibration standards of ~0.5 to 1000 ng/ml (0.5, 1, 2, 5, 10, 50, 100, 500, and 1000 ng/ml) in a total volume of 55 μL. Five quality control samples at 1 ng/ml, 2 ng/ml, 5 ng/mL, 50 ng/mL, and 800 ng/mL for plasma were prepared independently of those used for the calibration curves. These QC samples were prepared on the day of analysis in the same way as calibration standards.
55 μL of standards, 55 μL of QC samples and 55 μL of unknown samples (50 μL of unknown rat plasma with 5 μL of blank solution) were added to 200 μL of acetonitrile containing internal standard (IS; verapamil) mixture for precipitating protein respectively. The samples were then vortexed for 30 s. After centrifugation at 4° C., 3900 rpm for 15 min, the supernatant was diluted 3 times with water. 3 μL of diluted supernatant was injected into the LC/MS/MS system for quantitative analysis.

[4] = Lewis rats, PO 10 mg/kg, 1% methylcellulose formulation, individual animals, 10 mg/kg
[5] = Lewis rats, PO 10 mg/kg, 1% methylcellulose formulation, mean of 3 animals
[6] = Lewis rats, PO 10 mg/kg, propylene glycol/Vitamin E TPGS/water formulation, individual animals, 10 mg/kg
[7] = Lewis rats, PO 10 mg/kg, propylene glycol/Vitamin E TPGS/water formulation, mean of 3 animals

SMILES: Cn1cc(-c2ccccc2)c(-c2cn(C)c(=O)c3[nH]c(-c4cnn(C(F)(F)F)c4)cc23)cc1=O [Compound A, 6-methyl-4-(1-methyl-2-oxo-5-phenyl-1,2-dihydropyridin-4-yl)-2-(1-(trifluoromethyl)-1H-pyrazol-4-yl)-1,6-dihydro-7H-pyrrolo[2,3-c]pyridin-7-one]
- Clinical observations assessed daily [1]: soft stools on just one study day
- Concentration ([2]; UUO + Compound A, male SD rats, time 4 h, individual Test Subjects 1-8): 220 ng/mL and 318 ng/mL and 133 ng/mL and 215 ng/mL and 132 ng/mL and 194 ng/mL and 198 ng/mL and 195 ng/mL
- concentration at 4 h ([2]; male, Sprague-Dawley, UUO + Compound A, male SD rats, time 4 h, mean of 8 test subjects, read-out: Concentration, Mean): 201 ng/mL
- concentration at 4 h ([2]; po, four hours after final treatment, read-out: Mean plasma concentration): 201 ng/mL
- Percent Inhibition Relative to Control (CXCL10) (CXCL10; Compound Conc. 10 μM, Donors 1-6 two values each, Donors 7-10 three values each): 101.41%
- IC50 (CXCL10; Average preliminary biomarker assay, read-out: CXCL10 IC50 Mean): 1000 nM
- IC50 (CXCL10; Preliminary biomarker assay, Test Subject 1, read-out: CXCL 10 IC50): 1000 nM
- IC50 (CXCL10; ELISA, read-out: Selectivity (IC50) CXCL10): 3640 nM
- inhibition of CXCL10 (CXCL10; human PBMCs, IFN-γ, 24 hours): minimal inhibition
- Plasma Concentration ([3]; Lewis rats, PO 10 mg/kg, 1% methylcellulose formulation, 0.083 h, individual animals): 0.00 ng/mL
- Plasma Concentration ([3]; Lewis rats, PO 10 mg/kg, 1% methylcellulose formulation, 0.083 h, mean of 3 animals): BLOQ
- Plasma Concentration ([3]; Lewis rats, PO 10 mg/kg, 1% methylcellulose formulation, 0.25 h, individual animals, 10 mg/kg): 1.37 ng/mL and 0.868 ng/mL and 0.603 ng/mL
- Plasma Concentration ([3]; Lewis rats, PO 10 mg/kg, 1% methylcellulose formulation, 0.5 h, individual animals, 10 mg/kg): 9.07 ng/mL and 4.15 ng/mL and 2.89 ng/mL
- Plasma Concentration ([3]; Lewis rats, PO 10 mg/kg, 1% methylcellulose formulation, 1 h, individual animals, 10 mg/kg): 10.7 ng/mL and 12.2 ng/mL
- Plasma Concentration ([3]; Lewis rats, PO 10 mg/kg, 1% methylcellulose formulation, 2 h, individual animals, 10 mg/kg): 21.6 ng/mL and 22.7 ng/mL
- Plasma Concentration ([3]; Lewis rats, PO 10 mg/kg, 1% methylcellulose formulation, 4 h, individual animals, 10 mg/kg): 49.2 ng/mL and 43.1 ng/mL
- Plasma Concentration ([3]; Lewis rats, PO 10 mg/kg, 1% methylcellulose formulation, 8 h, individual animals, 10 mg/kg): 29.3 ng/mL and 67.3 ng/mL and 50.6 ng/mL
- Plasma Concentration ([3]; Lewis rats, PO 10 mg/kg, 1% methylcellulose formulation, 24 h, individual animals, 10 mg/kg): 0.996 ng/mL and 1.52 ng/mL and 5.80 ng/mL
- AUClast [3, 4]: 875 ng·h/mL and 726 ng·h/mL
- AUClast/D [3, 4]: 48.0 mg·h/mL and 87.5 mg·h/mL and 72.6 mg·h/mL
- Cmax [3, 4]: 67.3 ng/mL and 50.6 ng/mL
- F [3, 4]: 2.51% and 4.57% and 3.79%
- AUClast/D [3, 5]: 69.4 mg·h/mL
- F [3, 5]: 3.62%
- Plasma Concentration ([3]; Lewis rats, PO 10 mg/kg, propylene glycol/Vitamin E TPGS/water formulation, 0.083 h, individual animals, 10 mg/kg): 3.72 ng/mL and 4.36 ng/mL
- Plasma Concentration ([3]; Lewis rats, PO 10 mg/kg, propylene glycol/Vitamin E TPGS/water formulation, 0.25 h, individual animals, 10 mg/kg): 39.8 ng/mL and 47.2 ng/mL
- Plasma Concentration ([3]; Lewis rats, PO 10 mg/kg, propylene glycol/Vitamin E TPGS/water formulation, 0.5 h, individual animals, 10 mg/kg): 134 ng/mL
- Plasma Concentration ([3]; Lewis rats, PO 10 mg/kg, propylene glycol/Vitamin E TPGS/water formulation, 1 h, individual animals, 10 mg/kg): 264 ng/mL and 263 ng/mL
- Plasma Concentration ([3]; Lewis rats, PO 10 mg/kg, propylene glycol/Vitamin E TPGS/water formulation, 2 h, individual animals, 10 mg/kg): 375 ng/mL and 424 ng/mL
- Plasma Concentration ([3]; Lewis rats, PO 10 mg/kg, propylene glycol/Vitamin E TPGS/water formulation, 4 h, individual animals, 10 mg/kg): 316 ng/mL and 437 ng/mL
- Plasma Concentration ([3]; Lewis rats, PO 10 mg/kg, propylene glycol/Vitamin E TPGS/water formulation, 8 h, individual animals, 10 mg/kg): 156 ng/mL and 145 ng/mL
- Plasma Concentration ([3]; Lewis rats, PO 10 mg/kg, propylene glycol/Vitamin E TPGS/water formulation, 24 h, individual animals, 10 mg/kg): 12.6 ng/mL and 12.5 ng/mL
- AUC_%Extrap_obs ([3]; Lewis rats, PO 10 mg/kg, propylene glycol/Vitamin E TPGS/water formulation, individual animals): 2.25%
- AUClast [3, 6]: 3428 ng·h/mL and 3755 ng·h/mL
- Cmax [3, 6]: 375 ng/mL and 437 ng/mL
- F [3, 6]: 25.8% and 17.1% and 19.6%
- AUClast/D [3, 7]: 404
- F [3, 7]: 20.8%
- Clinical observations ([3]; both formulations, PO, 24 h): no recorded clinical observations
- plasma concentration, propylene glycol-based vs methylcellulose-based formulation ([3]; male Lewis rats, PO, same dose): approximately 10 fold
- concentration at 0.083 h ([3]; male, Lewis, rat, plasma, po, 10 mg/kg, Lewis rats, PO 10 mg/kg, 1% methylcellulose formulation, 0.083 h, individual animals): 0 ng/mL
